# According to patent publication US11078197B2, “5-membered and bicyclic heterocyclic amides as inhibitors of rock” (BRISTOL-MYERS SQUIBB COMPANY, priority 2017, dated 2021):
# Target: ROCK2 (Homo sapiens (Human), UniProt O75116)
# Assay: ROCK2 assay (peptide phosphorylation, LABCHIP 3000 Reader)
# Format: biochemical
# Details: 5 μM ATP, 1.5 μM peptide substrate, dose-response
# Protocol: After incubation, the reaction was terminated by the addition of EDTA and the phosphorylated and non-phosphorylated peptides separated using a LABCHIP®3000 Reader (Caliper Life Sciences). […] Compounds were tested in dose-response format, and the inhibition of kinase activity was calculated at each concentration of compound. […] Representative Examples were tested in the ROCK2 assay described above and found having ROCK2 inhibitory activity.
# Sequence of ROCK2 (O75116 whole entry, species assumed): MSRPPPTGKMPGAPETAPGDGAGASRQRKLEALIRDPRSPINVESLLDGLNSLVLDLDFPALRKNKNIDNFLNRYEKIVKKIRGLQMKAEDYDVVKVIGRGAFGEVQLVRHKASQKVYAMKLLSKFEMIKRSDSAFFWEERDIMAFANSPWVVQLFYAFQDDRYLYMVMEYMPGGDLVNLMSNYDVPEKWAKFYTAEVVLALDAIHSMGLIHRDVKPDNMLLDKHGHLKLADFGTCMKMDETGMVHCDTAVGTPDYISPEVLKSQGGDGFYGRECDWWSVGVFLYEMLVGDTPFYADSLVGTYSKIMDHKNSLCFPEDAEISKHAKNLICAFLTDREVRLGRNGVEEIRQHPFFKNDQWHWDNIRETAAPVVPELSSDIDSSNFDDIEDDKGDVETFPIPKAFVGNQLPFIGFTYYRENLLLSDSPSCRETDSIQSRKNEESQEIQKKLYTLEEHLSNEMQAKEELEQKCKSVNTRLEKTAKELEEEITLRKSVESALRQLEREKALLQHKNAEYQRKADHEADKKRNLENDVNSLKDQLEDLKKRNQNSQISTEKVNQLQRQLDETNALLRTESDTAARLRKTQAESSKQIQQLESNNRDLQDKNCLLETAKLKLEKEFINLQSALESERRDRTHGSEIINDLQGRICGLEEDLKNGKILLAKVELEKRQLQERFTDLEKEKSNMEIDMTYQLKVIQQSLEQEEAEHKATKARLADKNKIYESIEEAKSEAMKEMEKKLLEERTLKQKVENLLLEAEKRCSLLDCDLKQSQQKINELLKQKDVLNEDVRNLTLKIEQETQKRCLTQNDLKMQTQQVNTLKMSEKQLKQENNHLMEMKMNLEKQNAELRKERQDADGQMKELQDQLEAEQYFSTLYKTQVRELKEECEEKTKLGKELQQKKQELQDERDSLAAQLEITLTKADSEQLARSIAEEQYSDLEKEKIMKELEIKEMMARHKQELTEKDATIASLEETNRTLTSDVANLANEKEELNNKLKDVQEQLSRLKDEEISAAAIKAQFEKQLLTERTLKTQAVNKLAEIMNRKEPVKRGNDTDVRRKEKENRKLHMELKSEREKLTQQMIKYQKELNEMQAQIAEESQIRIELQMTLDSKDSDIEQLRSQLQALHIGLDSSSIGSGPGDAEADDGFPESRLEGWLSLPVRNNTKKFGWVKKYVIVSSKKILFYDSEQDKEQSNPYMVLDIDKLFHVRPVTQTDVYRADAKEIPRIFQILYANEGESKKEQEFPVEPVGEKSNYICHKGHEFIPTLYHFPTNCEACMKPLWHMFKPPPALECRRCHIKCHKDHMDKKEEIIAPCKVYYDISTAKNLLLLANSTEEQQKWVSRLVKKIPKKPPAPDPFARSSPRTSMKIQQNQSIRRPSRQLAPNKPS
row,IC50 [nM],Compound
1,259,"Cc1c(C(N)=O)c(O[C@H]2C[C@@]3(C[C@H](NC(=O)c4cnn5c(C6CC6)c(OCC(C)(C)O)ccc45)C3)C2)nn1C (stereo partly drawn) [Example 37, 3-({(aR)-6-[7-cyclopropyl-6-(2-hydroxy-2-methylpropoxy)pyrazolo[1,5-a]pyridine-3-amido]spiro[3.3]heptan-2-yl}oxy)-1,5-dimethyl-1H-pyrazole-4-carboxamide]"
2,426,"Cc1c(C(=O)N[C@H]2C[C@]3(C2)C[C@H](Oc2nn(-c4ccccc4)cc2C(N)=O)C3)cnn1-c1ccc(C#N)cc1 (stereo partly drawn) [Example 38, 3-({(aR)-6-[1-(4-cyanophenyl)-5-methyl-1H-pyrazole-4-amido]spiro[3.3]heptan-2-yl}oxy)-1-phenyl-1H-pyrazole-4-carboxamide]"
3,2400,"CC(C)(O)COc1ccc2c(C(=O)N[C@H]3C[C@]4(C3)C[C@H](Oc3c(C(N)=O)cnn3C(F)F)C4)cnn2c1C1CC1 (stereo partly drawn) [Example 39, 5-({(aR)-6-[7-cyclopropyl-6-(2-hydroxy-2-methylpropoxy)pyrazolo [1,5-a]pyridine-3-amido]spiro[3.3]heptan-2-yl}oxy)-1-(difluoromethyl)-1H-pyrazole-4-carboxamide]"
4,55.6,"N#Cc1cc(C(=O)N[C@H]2C[C@]3(C2)C[C@H](Oc2nn(-c4ccccc4)cc2C(N)=O)C3)cc(-c2cnn(C(F)F)c2)c1 (stereo partly drawn) [Example 41, 1-phenyl-3-{[(aR)-6-{3-cyano-5-[1-(difluoromethyl)-1H-pyrazol-4-yl]benzamido}spiro [3.3]heptan-2-yl]oxy}-1H-pyrazole-4-carboxamide]"
5,119,"Cc1nc(O[C@H]2C[C@@]3(C[C@H](NC(=O)c4cnn(-c5ccc(C#N)cc5)c4C)C3)C2)c(C(N)=O)s1 (stereo partly drawn) [Example 43, 2-methyl-4-{[(aR)-6-[1-(4-cyanophenyl)-5-methyl-1H-pyrazole-4-amido]spiro[3.3]heptan-2-yl]oxy}-1,3-thiazole-5-carboxamide]"
6,25.2,"Cc1c(C(=O)N[C@H]2C[C@]3(C2)C[C@H](Oc2nc(C4CC4)sc2C(N)=O)C3)cnn1-c1ccc(C#N)cc1 (stereo partly drawn) [Example 44, 2-cyclopropyl-4-{[(aR)-6-[1-(4-cyanophenyl)-5-methyl-1H-pyrazole-4-amido]spiro[3.3]heptan-2-yl]oxy}-1,3-thiazole-5-carboxamide]"
7,25,"Cc1c(C(=O)N[C@H]2C[C@]3(C2)C[C@H](Oc2nc(C4CC4)sc2C(N)=O)C3)cnn1-c1ccc(Cl)cc1 (stereo partly drawn) [Example 45, 2-cyclopropyl-4-{[(aR)-6-[1-(4-chlorophenyl)-5-methyl-1H-pyrazole-4-amido]spiro[3.3]heptan-2-yl]oxy}-1,3-thiazole-5-carboxamide]"
8,359,"Cc1c(C(=O)N[C@H]2C[C@]3(C2)C[C@H](Oc2nn(C)cc2C(N)=O)C3)cnn1-c1ccc(C#N)cc1 (stereo partly drawn) [Example 46, 1-(4-cyanophenyl)-5-methyl-N-[(aR)-6-[(4-carbamoyl-1-methyl-1H-pyrazol-3-yl)oxy]spiro[3.3]heptan-2-yl]-1H-pyrazole-4-carboxamide]"
9,113,"Cc1c(C(=O)N[C@H]2C[C@]3(C2)C[C@H](Oc2nn(C)cc2C(N)=O)C3)cnn1-c1ccc(Cl)cc1 (stereo partly drawn) [Example 47, 1-(4-chlorophenyl)-5-methyl-N-[(aR)-6-[(4-carbamoyl-1-methyl-1H-pyrazol-3-yl)oxy]spiro[3.3]heptan-2-yl]-1H-pyrazole-4-carboxamide]"
10,685,"COc1ccc(-n2ncc(C(=O)N[C@H]3C[C@]4(C3)C[C@H](Oc3nn(C)cc3C(N)=O)C4)c2C)cn1 (stereo partly drawn) [Example 48, 1-(6-methoxypyridin-3-yl)-5-methyl-N-[(aR)-6-[(4-carbamoyl-1-methyl-1H-pyrazol-3-yl)oxy]spiro[3.3]heptan-2-yl]-1H-pyrazole-4-carboxamide]"
11,450,"Cc1c(C(=O)N[C@H]2C[C@]3(C2)C[C@H](Oc2nn(-c4ccccc4)cc2C(N)=O)C3)cnn1-c1ccc(Cl)cc1 (stereo partly drawn) [Example 49, 1-phenyl-3-{[(aR)-6-[1-(4-chlorophenyl)-5-methyl-1H-pyrazole-4-amido]spiro[3.3]heptan-2-yl]oxy}-1H-pyrazole-4-carboxainide]"
12,322,"COc1ccc(-n2ncc(C(=O)N[C@H]3C[C@]4(C3)C[C@H](Oc3nn(C5CC5)cc3C(N)=O)C4)c2C)cn1 (stereo partly drawn) [Example 50, 1-cyclopropyl-3-{[(aR)-6-[1-(6-methoxypyridin-3-yl)-5-methyl-1H-pyrazole-4-amido]spiro[3.3]heptan-2-yl]oxy}-1H-pyrazole-4-carboxamide]"
13,44.8,"Cc1c(C(=O)N[C@H]2C[C@]3(C2)C[C@H](Oc2nn(C4CC4)cc2C(N)=O)C3)cnn1-c1ccc(Cl)cc1 (stereo partly drawn) [Example 51, 1-cyclopropyl-3-{[(aR)-6-[1-(4-chlorophenyl)-5-methyl-1H-pyrazole-4-amido]spiro[3.3]heptan-2-yl]oxy}-1H-pyrazole-4-carboxamide]"
14,33.9,"NC(=O)c1cn(C(F)F)nc1O[C@H]1C[C@@]2(C[C@H](NC(=O)c3cnn4cc(OCC(O)(C(F)(F)F)C(F)(F)F)ccc34)C2)C1 (stereo partly drawn) [Example 52, 1-(difluoromethyl)-3-{[(aR)-6-{6-[3,3,3-trifluoro-2-hydxoxy-2-(trifluoromethyl)propoxy]pyrazolo [1,5-a]pyridine-3-amido}spiro[3.3]heptan-2-yl]oxy}-1H-pyrazole-4-carboxamide]"
15,22,"NC(=O)c1cn(C(F)F)nc1O[C@H]1C[C@@]2(C[C@H](NC(=O)c3cnn4cc(OCC(F)(F)F)ccc34)C2)C1 (stereo partly drawn) [Example 53, 1-(difluoromethyl)-3-{[(aR)-6-[6-(2,2,2-trifluoroethoxy)pyrazolo[1,5-a]pyridine-3-amido]spiro[3.3]heptan-2-yl]oxy}-1H-pyrazole-4-carboxamide]"
16,253,"Cc1c(C(=O)N[C@H]2C[C@]3(C2)C[C@H](Oc2nn(C(F)F)cc2C(N)=O)C3)cnn1-c1ccc(C#N)cc1 (stereo partly drawn) [Example 54, 1-(4-cyanophenyl)-5-methyl-N-[(aR)-6-{[4-carbamoyl-1-(difluoromethyl)-1H-pyrazol-3-yl]oxy}spiro[3.3]heptan-2-yl]-1H-pyrazole-4-carboxamide]"
17,78.3,"Cc1c(C(=O)N[C@H]2C[C@]3(C2)C[C@H](Oc2nn(C(F)F)cc2C(N)=O)C3)cnn1-c1ccc(Cl)cc1 (stereo partly drawn) [Example 55, 1-(4-chlorophenyl)-5-methyl-N-[(aR)-6-{[4-carbamoyl-1-(difluoromethyl)-1H-pyrazol-3-yl]oxy}spiro[3.3]heptan-2-yl]-1H-pyrazole-4-carboxamide]"
18,53.2,"NC(=O)c1cn(C2CC2)nc1O[C@H]1C[C@@]2(C[C@H](NC(=O)c3cnn4cc(OCC(F)(F)F)ccc34)C2)C1 (stereo partly drawn) [Example 56, 1-cyclopropyl-3-{[(aR)-6-[6-(2,2,2-trifluoroethoxy)pyrazolo [1,5-a]pyridine-3-amido]spiro[3.3]heptan-2-yl]oxy}-1H-pyrazole-4-carboxamide]"
19,15.9,"NC(=O)c1cn(C2CC2)nc1O[C@H]1C[C@@]2(C[C@H](NC(=O)c3cnn4cc(OCC(F)F)ccc34)C2)C1 (stereo partly drawn) [Example 57, 1-cyclopropyl-3-{[(aR)-6-[6-(2,2-difluoroethoxy)pyrazolo[1,5-a]pyridine-3-amido]spiro[3.3]heptan-2-yl]oxy}-1H-pyrazole-4-carboxamide]"
20,204,"NC(=O)c1cn(C2CC2)nc1O[C@H]1C[C@@]2(C[C@H](NC(=O)c3nc(C(F)(F)F)n4ccccc34)C2)C1 (stereo partly drawn) [Example 58, 1-cyclopropyl-3-{[(aR)-6-[3-(trifluoromethyl)imidazo[1,5-a]pyridine-1-amido]spiro[3.3]heptan-2-yl]oxy}-1H-pyrazole-4-carboxamide]"
21,5.3,"NC(=O)c1cn(C2CC2)nc1O[C@H]1C[C@@]2(C[C@H](NC(=O)c3nc(C(F)(F)F)n4cc(-c5ccc(F)nc5)ccc34)C2)C1 (stereo partly drawn) [Example 59, 1-cyclopropyl-3-{[(aR)-6-[6-(6-fluoropyridin-3-yl)-3-(trifluoromethyl)imidazo[1,5-a]pyridine-1-amido]spiro[3.3]heptan-2-yl]oxy}-1H-pyrazole-4-carboxamide]"
22,35.5,"NC(=O)c1cn(C2CC2)nc1O[C@H]1C[C@@]2(C[C@H](NC(=O)c3nc(C(F)(F)F)n4cc(Br)ccc34)C2)C1 (stereo partly drawn) [Example 60, 1-cyclopropyl-3-{[(aR)-6-[6-bromo-3-(trifluoromethyl)imidazo[1,5-a]pyridine-1-amido]spiro[3.3]heptan-2-yl]oxy}-1H-pyrazole-4-carboxamide]"
23,55.5,"NC(=O)c1sc(C2CC2)nc1O[C@H]1C[C@@]2(C[C@H](NC(=O)c3cnn4cc(OCC(O)(C(F)(F)F)C(F)(F)F)ccc34)C2)C1 (stereo partly drawn) [Example 61, 2-cyclopropyl-4-{[(aR)-6-{6-[3,3,3-trifluoro-2-hydroxy-2-(trifluoromethyl)propoxy]pyrazolo[1,5-a]pyridine-3-amido}spiro[3.3]heptan-2-yl]oxy}-1,3-thiazole-5-carboxamide]"

row,Compound,IC50 [nM]
1,"NC(=O)c1cn(-c2ccccc2)nc1O[C@H]1C[C@@]2(C[C@H](NC(=O)c3cnn4cc(OCCC(F)(F)F)ccc34)C2)C1 (stereo partly drawn) [Example 40, 1-phenyl-3-{[(aR)-6-[6-(3,3,3-trifluoropropoxy)pyrazolo[1,5-a]pyridine-3-amido]spiro[3.3]heptan-2-yl]oxy}-1H-pyrazole-4-carboxamide]",136
2,"CC(C)(O)COc1ccc2c(C(=O)N[C@H]3C[C@]4(C3)C[C@H](Oc3nn(-c5ccccc5)cc3C(N)=O)C4)nn(C(F)F)c2c1 (stereo partly drawn) [Example 42, 1-(difluoromethyl)-6-(2-hydroxy-2-methylpropoxy)-N-[(aR)-6-[(4-carbamoyl-1-phenyl-1H-pyrazol-3-yl)oxy]spiro[3.3]heptan-2-yl]-1H-indazole-3-carboxamide]",13.7
3,"NC(=O)c1sc(C2CC2)nc1O[C@H]1CC2(C[C@H](NC(=O)c3cnn4cc(OCC(F)(F)F)ccc34)C2)C1 (stereo partly drawn) [Example 62, 2-cyclopropyl-4-{[(aR)-6-[6-(2,2,2-trifluoroethoxy)pyrazolo [1,5-a]pyridine-3-amido]spiro[3.3]heptan-2-yl]oxy}-1,3-thiazole-5-carboxamide]",11.6
